One data set has as its system FLC PDX cells. Description: Validation screen on cells dissociated from FLC PDX. The data set is classed as cell-based, human. As to conditions: for Effect on FLC PDX cells in vitro (dose response, normalized percent survival): 10nM-10μM, FLC1-6; for Effect on FLC PDX cells in vitro (dose response, normalized percent survival) / EC50: 72 h; for EC50: read-out: EC50 against the PDX cells; for Efficacy ranking in the screen: ranked by average −log10EC50 for FLC1-5 minus −log10EC50 for PHH.

A further data set concerns ErbB2. As to conditions: read-out: IC50 ErbB2; cited from earlier work.
The test system of the next data set is FLC1 PDX cells. Description: Validation screen, 11-point dose response, 72 h, Cell Titer Glo. Conditions: read-out: EC50 FLC; FLC1, 72 h. Format: cell-based, human. In general terms: Cellular ATP, detected with luciferase, serves as a proxy for viable cell number.
The test system of another data set is FLC5 PDX cells. Described as above. The data set is classed as cell-based, human. As to conditions: read-out: EC50 FLC; FLC5, 72 h.
The subject of another data set is FLC3 PDX cells. The description is as above. The data set is classed as cell-based, human. Conditions: read-out: EC50 FLC; FLC3, 72 h.
For data set [1], the system named is primary human hepatocytes (PHH). Description: Validation counter-screen on primary human hepatocytes. Conditions: 72 h; for EC50: read-out: EC50 PHH. (In general: Counterscreens check selectivity or assay interference.)
A further data set has as its target PKG. Conditions: read-out: Ki against other kinases: PKG; cited from earlier work.
The next data set has as its system FLC4 PDX cells. Description: Validation screen, 11-point dose response, 72 h, Cell Titer Glo. The data set is classed as cell-based, human. As to conditions: read-out: EC50 FLC; FLC4, 72 h.
The test system of another data set is FLC2 PDX cells. The data set is described as above. The data set is classed as cell-based, human. As to conditions: read-out: EC50 FLC; FLC2, 72 h.
Another data set addresses PKA. Conditions: read-out: Ki PKA; cited from earlier work.
In a further data set the test system is AURKA. Conditions: read-out: IC50 AURKA; cited from earlier work.
In a further data set the test system is FLC1,3,5 cells. The data set can be described thus: Synergy assay, combination matrix with panobinostat. The data set is classed as cell-based, human.
A further data set concerns FLC5 cells. Description: Anchor screen, synergy assay. The data set is classed as cell-based, human. Conditions: FLC5, ZIP, Bliss and HSA scores.
In data set [2] the test system is cells dissociated directly from patient tumors (FLC.T6-T11). Description: Direct from patient in vitro screening. The data set is classed as cell-based, human.
For data set [3], the system named is eIF4F sensitive proteins in FLC6 cells. Description: Immunoblot of eIF4F sensitive protein levels. Format: cell-based, human. (In general: A western blot detects proteins with antibodies after separation by electrophoresis.)
Another data set relates to FLC1 cells. The data set can be described thus: Role of ROS: survival with or without N-acetyl cysteine 10mM. Conditions: NAC 10mM, 72 h. The data set is classed as cell-based, human.
The next data set has as its system FLC1 PDX. Description: In vivo drug testing in mice bearing PDX FLC1.
Setting [4] is: napabucasin 10mg/kg IP, 5 days on 2 days off, FLC1.
Setting [5] is: napabucasin 10mg/kg IP, 14 days.
The mark [6] stands for this setting: napabucasin 10mg/kg, after 14 days.

These results are taken from paper PMC8734228 (Cancer discovery, 2021).

Where two headings read alike, the source gives them in different places.

As for `COCC(=O)NC/C=C/c1ccc2ncnc(Nc3ccc(Oc4ccc(C)nc4)c(C)c3)c2c1` [CP-724714], the “Effect on FLC PDX cells in vitro (dose response, normalized percent survival)” value with FLC PDX cells is “no effect”. Moreover, the IC50 (commonly the point on the concentration scale where inhibition reaches its midpoint) in the data set with ErbB2 is 0.01 µM.
`O=S(=O)(NCCNC/C=C/c1ccc(Br)cc1)c1cccc2cnccc12` [H89]: the half-maximal effective concentration (EC50) (in general, the concentration giving half of the maximal effect) came to 5.82 µM in the data set with FLC1 PDX cells; 9.49 µM in the data set with FLC5 PDX cells; 18.2 µM in the data set with FLC3 PDX cells; 41.5 µM in data set [1]; 20.9 µM in the data set on FLC4 PDX cells; 23.9 µM with FLC2 PDX cells. The inhibition constant (Ki) (in general, the equilibrium dissociation constant of an inhibitor or competing ligand from its target) was 0.48 µM on PKG and 0.048 µM on PKA. Also, in the data set with FLC PDX cells (FLC PDX cells compared with PHH), the “Therapeutic window for FLC over PHH” value is “no therapeutic window”.
Consider Aurora Kinase Inhibitor I, for which the half-maximal effective concentration (EC50) in the data set on FLC PDX cells was in the range of 1 to 4 µM. Also, the IC50 in the data set with AURKA was 0.0034 µM.
Regarding `Cc1c2c(nn1C)CSCc1cc(n(C)n1)CSc1cc(c3ccccc3c1)OCCCc1c(C(=O)O)n(C)c3c-2c(Cl)ccc13` [AZD5991], the “Synergy with panobinostat (ZIP synergy score)” value (“Synergy with panobinostat” for short) in the data set with FLC1,3,5 cells is on record as “more modest synergy”.
As for `Cc1cc(Nc2cc(N3CCN(C)CC3)nc(/C=C/c3ccccc3)n2)n[nH]1` [ENMD-2076], in the data set on FLC5 cells, the “Synergy with A1331852” value is “All drugs, apart from ENMD-2076 and uprosertib, showed some synergy”. Besides, the half-maximal effective concentration (EC50) in the data set with FLC PDX cells (Homo sapiens) is more than 5 µM. The “Efficacy ranking in the screen” value with FLC PDX cells is 123. The IC50 with AURKA is […].
Take `CC(=O)c1cc2c(o1)C(=O)c1ccccc1C2=O` [napabucasin]: the “Sensitivity of cells tested directly from patients” value in data set [2] (10μM-10nM, 72h, Cell Titer Glo) was “sensitive”. Besides, the “Drug sensitivity of FLC.T6 compared with derived PDX FLC6 (EC50)” value in data set [2] (cells direct from patient tumor vs cells from its PDX) was “correlated well”. Further, in [3] (1 μM napabucasin, FLC cells, GAPDH control), the c-Myc levels result is recorded as “dramatic decrease”. The “Levels of MDM2, Bcl-xL, MCL1 and Cyclin D1” value in data set [3] (napabucasin 1μM or 2μM, FLC6 cells) is given as “lowered the levels”. The “Effect on PHH (dose response, normalized percent survival)” value in data set [1] (up to 10 μM) is recorded as “no detectable effect”. Besides, the “Effect of N-acetyl cysteine (NAC) on the toxicity of the drug” value with FLC1 cells is given as “partially attenuated”. Further, in the data set on FLC1 PDX (setting [4]), the “Tumor growth at 7 days” value came to 44% and the “Tumor growth at 14 days” value is 52%. For the same compound, in the data set on FLC1 PDX (setting [5]), the Average weight loss is 6.7% and the “Ratio of tumor volume:mouse weight” value is reported as “stable or decreased”. Besides, in the data set on FLC1 PDX (setting [6]), the “Mitotic figures, Ki67 and pHH3 positive cells in tumors” value was “decrease”; the “TUNEL positive cells in tumors” value is “small increase”.
With `Cc1c(-c2ccc(N3CCc4cccc(C(=O)Nc5nc6ccccc6s5)c4C3)nc2C(=O)O)cnn1CC12CC3CC(CC(C3)C1)C2` [A1331852], in the data set on FLC1,3,5 cells, the “Synergy with panobinostat” value is reported as “synergized”.
With `CC1(C)CCC(CN2CCN(c3ccc(C(=O)NS(=O)(=O)c4ccc(NCC5CCOCC5)c([N+](=O)[O-])c4)c(Oc4cnc5[nH]ccc5c4)c3)CC2)=C(c2ccc(Cl)cc2)C1` [venetoclax], in the data set on FLC1,3,5 cells, the “Synergy with panobinostat” value is listed as “no synergy”. In addition, in the data set with FLC PDX cells, the “Effect on FLC PDX cells in vitro (dose response, normalized percent survival)” value is listed as “minimal activity” and the “Efficacy ranking in the screen” value is listed as “towards the bottom of the ranking”.
Take `NC1(C(=O)N[C@@H](CCO)c2ccc(Cl)cc2)CCN(c2nc[nH]c3nccc2-3)CC1` [Capivasertib (AZD5363), Capivasertib]: the EC50 is 2.98 µM in the data set with FLC1 PDX cells; 12.6 µM in the data set with FLC5 PDX cells; 5.15 µM with FLC3 PDX cells; more than 10 µM in data set [1]; 2.09 µM in the data set with FLC4 PDX cells; 3.85 µM in the data set on FLC2 PDX cells.
